Where only a bound is given, the exact number is not on record here.

Test [1] concerns the target T1, HiBit-BRM fusion protein (Homo sapiens, UniProt P51531).
T1 construct: expressed in transfected cells
Description: HiBiT-BRM cell-based degradation assay (Nano-Glo HiBiT Lytic Detection, 24 h). The note with it: HeLa cell line expressing HiBiT-BRM; for DC50: read-out: BRM HiBit Degradation IC50. The essentials: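 Percent BRM loss was derived from HiBiT luminescence relative to DMSO-treated cells and cells given 2 μM of a known BRM/BRG1 degrader. Treatment lasted 24 h in HiBiT-BRM HeLa cells, with a top final concentration of 30 μM.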

For test [2], the target named is T2, HiBit-BRG1 fusion protein (Homo sapiens, UniProt P51532).
T2 construct: expressed in transfected cells
The experiment in a line: HiBiT-BRG1 cell-based degradation assay (Nano-Glo HiBiT Lytic Detection, 24 h). The note with it: HeLa cell line expressing HiBit-BRG1 and LgBit; for Dmax: read-out: BRG1 HiBit Degradation Maximum (%). The procedure, abridged: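 Luminescence from Nano-Glo HiBiT lytic detection, read after 24 h compound exposure, scored degradation in a stable HeLa HiBiT-BRG1/LgBit line seeded at 5000 cells/well. DMSO wells defined 0% and 2 μM known BRM/BRG1 degrader wells defined full degradation.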

T2 sequence (P51532 whole entry, the tested form may be a part): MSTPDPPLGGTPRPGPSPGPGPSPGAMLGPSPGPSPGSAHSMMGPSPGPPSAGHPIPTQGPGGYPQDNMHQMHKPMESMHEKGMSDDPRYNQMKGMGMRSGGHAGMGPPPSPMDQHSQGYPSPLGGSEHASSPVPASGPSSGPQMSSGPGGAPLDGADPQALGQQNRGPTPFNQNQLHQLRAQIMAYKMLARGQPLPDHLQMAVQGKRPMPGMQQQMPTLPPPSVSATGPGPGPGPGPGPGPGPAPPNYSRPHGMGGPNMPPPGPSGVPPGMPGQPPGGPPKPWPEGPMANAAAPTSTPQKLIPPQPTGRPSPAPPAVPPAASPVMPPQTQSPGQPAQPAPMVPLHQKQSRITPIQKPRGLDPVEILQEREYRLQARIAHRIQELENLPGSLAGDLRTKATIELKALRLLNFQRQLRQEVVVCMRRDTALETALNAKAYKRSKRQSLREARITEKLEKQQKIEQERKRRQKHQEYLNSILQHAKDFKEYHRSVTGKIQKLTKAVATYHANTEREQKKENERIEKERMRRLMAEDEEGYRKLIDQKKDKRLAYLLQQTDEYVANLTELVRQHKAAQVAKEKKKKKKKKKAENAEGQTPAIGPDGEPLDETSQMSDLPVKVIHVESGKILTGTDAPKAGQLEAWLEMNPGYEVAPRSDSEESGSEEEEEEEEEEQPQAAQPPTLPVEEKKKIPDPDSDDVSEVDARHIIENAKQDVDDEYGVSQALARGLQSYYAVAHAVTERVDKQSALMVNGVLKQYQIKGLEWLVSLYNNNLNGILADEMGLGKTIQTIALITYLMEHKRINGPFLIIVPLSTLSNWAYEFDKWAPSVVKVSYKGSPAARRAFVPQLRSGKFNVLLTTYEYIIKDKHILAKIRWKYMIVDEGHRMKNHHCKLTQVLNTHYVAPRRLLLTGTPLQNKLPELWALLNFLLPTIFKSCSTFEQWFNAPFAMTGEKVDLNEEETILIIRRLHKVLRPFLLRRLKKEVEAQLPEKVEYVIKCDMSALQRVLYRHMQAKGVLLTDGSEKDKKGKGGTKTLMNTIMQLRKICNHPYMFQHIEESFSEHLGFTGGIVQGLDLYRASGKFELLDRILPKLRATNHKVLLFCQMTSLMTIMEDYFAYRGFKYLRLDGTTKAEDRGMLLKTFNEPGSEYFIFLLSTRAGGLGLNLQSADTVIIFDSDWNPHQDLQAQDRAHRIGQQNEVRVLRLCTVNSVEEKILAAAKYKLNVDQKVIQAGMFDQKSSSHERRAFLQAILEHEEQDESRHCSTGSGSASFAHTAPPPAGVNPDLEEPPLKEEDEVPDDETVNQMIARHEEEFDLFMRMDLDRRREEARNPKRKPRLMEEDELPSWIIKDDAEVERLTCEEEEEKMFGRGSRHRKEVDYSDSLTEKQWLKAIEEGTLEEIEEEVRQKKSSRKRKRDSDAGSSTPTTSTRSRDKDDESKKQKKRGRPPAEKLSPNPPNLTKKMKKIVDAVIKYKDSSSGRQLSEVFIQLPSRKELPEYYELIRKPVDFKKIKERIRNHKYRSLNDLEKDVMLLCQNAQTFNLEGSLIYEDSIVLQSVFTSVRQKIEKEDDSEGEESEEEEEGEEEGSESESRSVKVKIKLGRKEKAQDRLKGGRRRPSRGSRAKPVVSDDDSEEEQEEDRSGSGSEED
T1 sequence (P51531 whole entry, the tested form may be a part): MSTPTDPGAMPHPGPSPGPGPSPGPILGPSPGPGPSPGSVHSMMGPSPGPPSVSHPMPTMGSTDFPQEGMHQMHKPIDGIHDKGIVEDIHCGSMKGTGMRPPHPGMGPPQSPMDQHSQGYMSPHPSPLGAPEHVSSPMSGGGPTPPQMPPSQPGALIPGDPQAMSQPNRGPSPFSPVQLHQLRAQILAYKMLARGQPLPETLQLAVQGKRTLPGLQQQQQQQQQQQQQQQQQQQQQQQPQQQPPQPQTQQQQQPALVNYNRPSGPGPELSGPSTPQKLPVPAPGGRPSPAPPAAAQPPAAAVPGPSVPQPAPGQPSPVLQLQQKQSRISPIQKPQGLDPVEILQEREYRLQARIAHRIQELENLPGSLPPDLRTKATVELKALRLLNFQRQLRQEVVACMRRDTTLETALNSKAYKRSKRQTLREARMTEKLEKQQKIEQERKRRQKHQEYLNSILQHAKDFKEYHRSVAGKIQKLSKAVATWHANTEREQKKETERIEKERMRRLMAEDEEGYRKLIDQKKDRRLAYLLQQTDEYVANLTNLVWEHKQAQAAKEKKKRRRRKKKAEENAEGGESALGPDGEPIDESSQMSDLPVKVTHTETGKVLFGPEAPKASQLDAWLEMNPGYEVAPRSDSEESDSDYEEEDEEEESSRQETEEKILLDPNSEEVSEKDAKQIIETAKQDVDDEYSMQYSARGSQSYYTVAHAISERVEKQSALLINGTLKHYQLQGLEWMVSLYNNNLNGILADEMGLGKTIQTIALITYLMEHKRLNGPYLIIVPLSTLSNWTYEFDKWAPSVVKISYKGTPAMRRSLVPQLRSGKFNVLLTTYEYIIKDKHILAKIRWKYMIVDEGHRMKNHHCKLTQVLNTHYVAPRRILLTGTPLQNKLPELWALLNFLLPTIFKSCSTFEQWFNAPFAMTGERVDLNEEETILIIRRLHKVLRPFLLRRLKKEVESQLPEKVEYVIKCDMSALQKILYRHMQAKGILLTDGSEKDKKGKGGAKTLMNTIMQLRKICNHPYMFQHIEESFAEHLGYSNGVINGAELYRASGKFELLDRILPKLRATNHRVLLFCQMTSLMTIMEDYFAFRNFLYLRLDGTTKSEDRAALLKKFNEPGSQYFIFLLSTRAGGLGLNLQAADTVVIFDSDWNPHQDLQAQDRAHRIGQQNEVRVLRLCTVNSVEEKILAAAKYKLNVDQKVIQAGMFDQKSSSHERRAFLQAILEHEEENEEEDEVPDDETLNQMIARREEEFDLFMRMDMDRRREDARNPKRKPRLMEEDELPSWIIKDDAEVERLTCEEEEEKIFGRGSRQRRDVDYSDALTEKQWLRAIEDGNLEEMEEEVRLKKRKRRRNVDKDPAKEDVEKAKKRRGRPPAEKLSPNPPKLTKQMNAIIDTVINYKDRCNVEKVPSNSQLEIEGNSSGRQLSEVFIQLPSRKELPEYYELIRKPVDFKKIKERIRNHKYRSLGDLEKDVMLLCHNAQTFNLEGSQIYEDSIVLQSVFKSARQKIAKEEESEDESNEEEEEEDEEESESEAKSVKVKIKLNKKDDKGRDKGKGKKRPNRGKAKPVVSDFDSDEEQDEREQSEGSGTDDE

With `Cc1ncsc1-c1ccc([C@H](C)NC(=O)[C@@H]2C[C@@H](O)CN2C(=O)[C@@H](c2cc([C@H]3CC[C@H](c4cnc(N5CCC(c6c[nH]c7nnc(-c8ccccc8O)cc67)CC5)nc4)CC3)no2)C(C)C)cc1` (racemic) [Compound 67, (2S,4R)-4-hydroxy-N-[(1S)-1-[4-(4-methyl-1,3-thiazol-5-yl)phenyl]ethyl]-1-[(2R)-3-methyl-2-{3-[(1r,4r)-4-(2-{4-[3-(2-hydroxyphenyl)-7H-pyrrolo[2,3-c]pyridazin-5-yl]piperidin-1-yl}pyrimidin-5-yl)cyclohexyl]-1,2-oxazol-5-yl}butanoyl]pyrrolidine-2-carboxamide], in test [1], the “BRM HiBit Degradation Maximum (%)” value was “A (“A” indicates maximum degradation ≥ 75%)” and the DC50 was under 10 nM. For the same compound, in test [2], the Dmax is over 75%. Moreover, the DC50 in test [2] (read-out: BRMG1 HiBit Degradation IC50) is over 10 nM.

Consider `Cc1ncsc1-c1ccc([C@H](C)NC(=O)[C@@H]2C[C@@H](O)CN2C(=O)[C@@H](c2cc(OCCN3CC(c4cn(C(F)F)c5nnc(-c6ccccc6O)cc45)C3)no2)C(C)C)cc1` [Compound 116, (2S,4R)-1-((R)-2-(3-(2-(3-(7-(difluoromethyl)-3-(2-hydroxyphenyl)-7H-pyrrolo[2,3-c]pyridazin-5-yl)azetidin-1-yl)ethoxy)isoxazol-5-yl)-3-methylbutanoyl)-4-hydroxy-N-((S)-1-(4-(4-methylthiazol-5-yl)phenyl)ethyl)pyrrolidine-2-carboxamide], for which the “BRM HiBit Degradation Maximum (%)” value in test [1] is reported as “C (“C” indicates maximum degradation < 50%)”. Besides, the Dmax in test [2] is under 50%.

Turning to `Cc1ncsc1-c1ccc([C@H](C)NC(=O)[C@@H]2C[C@@H](O)CN2C(=O)[C@@H](c2cc(OCCN3CCC[C@H](c4c[nH]c5nnc(-c6ccccc6O)cc45)C3)no2)C(C)C)cc1` (racemic) [Compound 291, (2S,4R)-4-hydroxy-1-((R)-2-(3-(2-((R)-3-(3-(2-hydroxyphenyl)-7H-pyrrolo[2,3-c]pyridazin-5-yl)piperidin-1-yl)ethoxy)isoxazol-5-yl)-3-methylbutanoyl)-N-((S)-1-(4-(4-methylthiazol-5-yl)phenyl)ethyl)pyrrolidine-2-carboxamide], in test [1], the “BRM HiBit Degradation Maximum (%)” value is on record as “B (“B” indicates maximum degradation ≥ 50%)” and the DC50 was over 10 nM. In test [2], the Dmax is under 50%.

As to `Cc1ncsc1-c1ccc(CNC(=O)[C@@H]2C[C@@H](O)CN2C(=O)[C@@H](NC(=O)C(=O)N2CC(c3cc4cc(-c5ccccc5O)nnc4[nH]3)C2)C(C)(C)C)cc1` (racemic) [Compound 306, (2S,4R)-4-hydroxy-1-((S)-2-(2-(3-(3-(2-hydroxyphenyl)-7H-pyrrolo[2,3-c]pyridazin-6-yl)azetidin-1-yl)-2-oxoacetamido)-3,3-dimethylbutanoyl)-N-(4-(4-methylthiazol-5-yl)benzyl)pyrrolidine-2-carboxamide], the “BRM HiBit Degradation Maximum (%)” value in test [1] was “C (“C” indicates maximum degradation < 50%)”. Moreover, the Dmax in test [2] is under 50%.

Turning to `Cc1ncsc1-c1ccc([C@H](C)NC(=O)[C@@H]2C[C@@H](O)CN2C(=O)[C@@H](c2cc(OCCN3CC(c4[nH]c5nnc(-c6ccccc6O)cc5c4Br)C3)no2)C(C)C)cc1` (racemic) [Compound 120], in test [1], the “BRM HiBit Degradation Maximum (%)” value is on record as “A (“A” indicates maximum degradation ≥ 75%)” and the DC50 is over 10 nM. Besides, in test [2], the Dmax is under 50%.

On to `Cc1ncsc1-c1ccc([C@H](C)NC(=O)[C@@H]2C[C@@H](O)CN2C(=O)[C@@H](c2cc(OCCN3C[C@@H]4[C@H](C3)[C@H]4c3cc4cc(-c5cccc(Cl)c5O)nnc4[nH]3)no2)C(C)C)cc1` (racemic) [Compound 110, (2S,4R)-1-((R)-2-(3-(2-((1R,5S,6R)-6-(3-(3-chloro-2-hydroxyphenyl)-7H-pyrrolo[2,3-c]pyridazin-6-yl)-3-azabicyclo[3.1.0]hexan-3-yl)ethoxy)isoxazol-5-yl)-3-methylbutanoyl)-4-hydroxy-N-((S)-1-(4-(4-methylthiazol-5-yl)phenyl)ethyl)pyrrolidine-2-carboxamide], for which, in test [1], the “BRM HiBit Degradation Maximum (%)” value is given as “A (“A” indicates maximum degradation ≥ 75%)” and the DC50 is over 10 nM. Besides, the Dmax in test [2] is under 50%.

On to `Cc1ncsc1-c1ccc([C@H](C)NC(=O)[C@@H]2C[C@@H](O)CN2C(=O)[C@H](c2cc(CN3CCc4[nH]c5nnc(-c6ccccc6O)cc5c4C3)no2)C(C)C)cc1` (single isomer, unassigned) [Compound 135], for which, in test [1], the “BRM HiBit Degradation Maximum (%)” value is “C (“C” indicates maximum degradation < 50%)”. For the same compound, the Dmax in test [2] was under 50%.

`Cc1ncsc1-c1ccc([C@H](C)NC(=O)[C@@H]2C[C@@H](O)CN2C(=O)[C@@H](c2cc(C3CN(C(=O)[C@@H]4CCc5[nH]c6nnc(-c7ccccc7O)cc6c5C4)C3)no2)C(C)C)cc1` (single isomer, unassigned) [Compound 158]: in test [1], the “BRM HiBit Degradation Maximum (%)” value is “A (“A” indicates maximum degradation ≥ 75%)” and the DC50 was over 100 nM. In test [2], the Dmax was under 50%.

For the compound `Cc1ncsc1-c1ccc([C@H](C)NC(=O)[C@@H]2C[C@@H](O)CN2C(=O)[C@@H](c2cc(OCCCN3CC(c4cc5cc(-c6ccccc6O)nnc5[nH]4)C3)no2)C(C)C)cc1` (single isomer, unassigned) [Compound 237], the “BRM HiBit Degradation Maximum (%)” value in test [1] was “C (“C” indicates maximum degradation < 50%)”. Further, the Dmax in test [2] is under 50%.

`Cc1ncsc1-c1ccc(CNC(=O)[C@@H]2C[C@@H](O)CN2C(=O)[C@@H](NC(=O)CCCCCCCC(=O)N2CC(c3cc4cc(-c5ccccc5O)nnc4[nH]3)C2)C(C)(C)C)cc1` [Compound 10, (2S,4R)-4-hydroxy-1-((S)-2-(9-(3-(3-(2-hydroxyphenyl)-7H-pyrrolo[2,3-c]pyridazin-6-yl)azetidin-1-yl)-9-oxononanamido)-3,3-dimethylbutanoyl)-N-(4-(4-methylthiazol-5-yl)benzyl)pyrrolidine-2-carboxamide]: in test [1], the “BRM HiBit Degradation Maximum (%)” value is “B (“B” indicates maximum degradation ≥ 50%)” and the DC50 is over 1000 nM. For the same compound, the Dmax in test [2] was under 50%.

Turning to `Cc1ncsc1-c1ccc(CNC(=O)[C@@H]2C[C@@H](O)CN2C(=O)[C@@H](NC(=O)CCCCC(=O)N2CC(c3c[nH]c4nnc(-c5ccccc5O)cc34)C2)C(C)(C)C)cc1` [Compound 47, (2S,4R)-4-hydroxy-1-((S)-2-(6-(3-(3-(2-hydroxyphenyl)-7H-pyrrolo[2,3-c]pyridazin-5-yl)azetidin-1-yl)-6-oxohexanamido)-3,3-dimethylbutanoyl)-N-(4-(4-methylthiazol-5-yl)benzyl)pyrrolidine-2-carboxamide], in test [1], the “BRM HiBit Degradation Maximum (%)” value is listed as “C (“C” indicates maximum degradation < 50%)”. In test [2], the Dmax is under 50%.

Regarding `Cc1ncsc1-c1ccc([C@H](C)NC(=O)[C@@H]2C[C@@H](O)CN2C(=O)[C@@H](c2cc(C3CCN(C(=O)CN4CC(c5cc6cc(-c7ccccc7O)nnc6[nH]5)C4)CC3)no2)C(C)C)cc1` (single isomer, unassigned) [Compound 179], in test [1], the “BRM HiBit Degradation Maximum (%)” value is recorded as “A (“A” indicates maximum degradation ≥ 75%)” and the DC50 was over 100 nM. Further, the Dmax in test [2] was under 50%.
